Experimental data from patent US20260272907A1, “Therapeutic Tyrosine Kinase Inhibitors for Multiple Sclerosis” (Principia Biopharma Inc., priority 2022, published 2026).

How the values were obtained:
CD19+ B-cell = assay: Phase 2b trial: plasma CD19+ B-cell count in the placebo run-out cohort; format: in vivo, human; settings: Cohort 1
Description: OUTCOMES: The outcomes evaluated in this example include measuring the incidence of relapse during 4-week placebo run-in and run-out, the number of new Gd-enhancing T1 lesions detected with magnetic resonance imaging (MRI) at Weeks 4, 8 and 16, the number of new or enlarging T2 lesions measured at Weeks 4, 8 and 16, and the plasma CD19+B-cell count measured in the placebo run-out cohort at baseline, 1 hour after the first dose, then at Week 12 and Week 16 (FIG. 3).

[1] = test system: patients with relapsing multiple sclerosis; assay: Long-term safety extension: paramagnetic rim lesions (PRL) count (MRI); format: in vivo, human
Description: In the current open-label extension Part B, all patients receive 60 mg/day. MRI outcomes include numbers of new Gd-enhancing and new/enlarging T2 lesions, T2 lesion volume change from baseline, slowly evolving lesions (SEL), and paramagnetic rim lesions (PRL).

CYP2C8 = molecular target: T1, CYP2C8 (Homo sapiens, UniProt P10632); assay: Preclinical drug metabolism studies: CYP2C8; format: in vitro ADME
T1 sequence (P10632 1-490): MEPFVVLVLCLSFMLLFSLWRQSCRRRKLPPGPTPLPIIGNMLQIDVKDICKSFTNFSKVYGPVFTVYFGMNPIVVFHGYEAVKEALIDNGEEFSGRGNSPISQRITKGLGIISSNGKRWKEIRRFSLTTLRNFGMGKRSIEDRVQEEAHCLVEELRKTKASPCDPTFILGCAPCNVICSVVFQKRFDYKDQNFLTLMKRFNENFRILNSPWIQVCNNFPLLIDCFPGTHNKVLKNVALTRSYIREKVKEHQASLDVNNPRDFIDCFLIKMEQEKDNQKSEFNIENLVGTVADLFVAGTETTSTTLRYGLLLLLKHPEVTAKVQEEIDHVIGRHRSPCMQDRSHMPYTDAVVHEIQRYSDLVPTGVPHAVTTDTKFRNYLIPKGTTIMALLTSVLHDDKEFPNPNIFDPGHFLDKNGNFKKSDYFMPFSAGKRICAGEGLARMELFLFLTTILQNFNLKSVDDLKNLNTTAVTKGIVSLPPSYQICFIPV
Text: See Table 12 for the list of drugs not to be used.

patients with RMS = assay: Ongoing tolebrutinib Phase 3 trials: drug-induced liver injury; format: in vivo, human; settings: ongoing Phase 3 trials
Text: Drug-induced liver injury has been identified in the ongoing tolebrutinib Phase 3 trials. The reported events occurred between months 2 to 3 after the start of tolebrutinib administration, and the elevation of liver enzymes appears reversible after tolebrutinib discontinuation. Thus, there is a need to mitigate the risk of hepatic injury and provide safe treatment for patients with RMS.

Structure (SMILES): C=CC(=O)N1CCC[C@@H](n2c(=O)n(-c3ccc(Oc4ccccc4)cc3)c3c(N)nccc32)C1 [the BTK inhibitor, (R)-1-(1-acryloylpiperidin-3-yl)-4-amino-3-(4-phenoxyphenyl)-1H-imidazo[4,5-c]pyridin-2(3H)-one]
- Number of B cells in the peripheral circulation after placebo run-out (CD19+ B-cell; after the 4-week placebo run-out period): returned towards baseline level
- Number of B cells in the peripheral circulation after the first dose (CD19+ B-cell; within 1 hour after the first dose): increased
- Patients in whom PRL count remained unchanged ([1]; W96 vs baseline, all arms): 18 patients
- Patients with 1 PRL at baseline but none at W96 ([1]; all arms): 2 patients
- Patients with 1-3 additional PRL at W96 vs baseline ([1]; none in the 60/60 mg arm): 3 patients
- Substrate of CYP2C8 isoenzyme (CYP2C8): substrate
- Course of the elevation of liver enzymes after discontinuation (patients with RMS): reversible
- Drug-induced liver injury (patients with RMS): identified
